Reference: US12285012B2, “Compositions comprising pyridine carboxylate herbicides with acetolactate synthase (ALS) inhibitor herbicides” (Corteva Agriscience LLC, priority 2018, dated 2025)
Like-named read-outs stand apart in the source and are kept apart here.

How the values were obtained:
[1] = test system: grain sorghum (SORVU, Sorghum vulgare); experiment: Greenhouse postemergence herbicidal effect; type: in vivo
Excerpt: (§1) Seeds of the desired test plant species were planted in a 90:10% v/v (volume/volume) mixture of PRO-MIX® BX (Premier Tech Horticulture, Quakertown, PA, USA) and PROFILE® GREENS GRADE™ (Profile Products LLC, Buffalo Grove, IL, USA) planting mixture, which typically has a pH of 5.2 to 6.2 and an organic matter content of at least 50 percent, in plastic pots with a surface area of 103.2 square centimeters (cm^2). In some aspects, to ensure good germination and healthy plants, a fungicide treatment and/or other chemical or physical treatment was applied. The plants were grown for 7-36 days (d) in a greenhouse with an approximate 14-hour (h) photo-period which was maintained at about 23° C. during the day and 22° C. during the night. Nutrients and water were added on a regular basis and supplemental lighting was provided with overhead metal halide 1000-Watt lamps as necessary. The plants were employed for testing when they reached the second or third true leaf stage.
(§2) Emulsifiable concentrates of each of each pyridine carboxylate herbicide (Compound A or Compound B) were prepared at 100 grams acid equivalent per liter (g ae/L). The emulsifiable concentrates also included a safener, cloquintocet-mexyl, at 120 grams active ingredient per liter (g ai/L), unless otherwise noted below. An aliquot of each emulsifiable concentrate was placed in a 25 mL glass vial and diluted with an aqueous mixture of 1.25% (v/v) ACTIROB® B esterified rapeseed oil (Bayer Crop Science, Research Triangle Park, NC, USA) or MSO® Concentrate with LECI-TECH® methylated soybean oil (Loveland Products, Loveland, CO, USA) to obtain concentrated stock solutions at the highest application rate for each herbicide, based upon a 12 milliliter (mL) application volume at a rate of 187 liters per hectare (L/ha). The concentrated stock solutions were further diluted with an aqueous mixture of 1.25% v/v ACTIROB® B or MSO® Concentrate with LECI-TECH® to obtain stock solutions at reduced application rates for each herbicide. Spray solutions of the herbicide combinations (Compound A or Compound B plus ALS herbicide) were prepared by adding weighed amounts or aliquots of the ALS herbicides to the stock solutions of Compound A or Compound B to form 12-mL spray solutions in two- or three-way combinations.
(§3) The spray solutions were applied to the plant material with an overhead Mandel track sprayer equipped with 8002E nozzles calibrated to deliver 187 L/ha over an application area of 0.503 square meters (m^2) at a spray height of 18 inches (43 centimeters (cm)) above the average plant canopy. Control plants were sprayed in the same manner with the solvent blank. All pyridine carboxylate herbicide (component a) application rates are given as “g ae/ha” and all ALS inhibitor (component b) application rates are given as “g ai/ha.”
(§4) The treated plants and control plants were placed in a greenhouse as described above and watered by sub-irrigation to prevent wash-off of the test compounds. After 20-22 d, the condition of the test plants as compared with that of the control plants was determined visually and scored on a scale of 0 to 100 percent where 0 corresponds to no injury and 100 corresponds to complete kill.

[2] = test system: ivyleaf morningglory (IPOHE, Ipomoea hederacea); experiment: Greenhouse postemergence herbicidal effect; type: in vivo
Excerpt: as §1, §2, §3, §4

[3] = test system: poinsettia (EPHHL, Euphorbia heterophylla); experiment: Greenhouse postemergence herbicidal effect; type: in vivo
Excerpt: as §1, §2, §3, §4

[4] = test system: common sunflower (HELAN, Helianthus annuus); experiment: Greenhouse postemergence herbicidal effect; type: in vivo
Excerpt: as §1, §2, §3, §4

[5] = test system: nutsedge (CYPES, Cyperus esculentus); experiment: Greenhouse postemergence herbicidal effect; type: in vivo
Excerpt: as §1, §2, §3, §4

[6] = test system: spring rape (BRSNN, Brassica napus); experiment: Greenhouse postemergence herbicidal effect; type: in vivo
Outline: (§5)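 Injury was rated visually after 20-22 d on a 0 (none) to 100% (complete kill) scale relative to solvent-sprayed controls, with sub-irrigation to avoid wash-off. Rates were given in g ae/ha or g ai/ha depending on component.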

[7] = test system: Canadian thistle (CIRAR, Cirsium arvense); experiment: Greenhouse postemergence herbicidal effect; type: in vivo
Outline: (§6)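 Herbicide mixtures, dosed as g ae/ha for the pyridine carboxylate and g ai/ha for the ALS inhibitor, are applied postemergence with cloquintocet-mexyl safener. Control plants receive solvent blank. Percent injury is assessed by eye 20–22 d later.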

spring wheat (TRZAS) = type: in vivo, Triticum aestivum
Outline: as §6

[8] = test system: wild oat (AVEFA, Avena fatua); experiment: Greenhouse postemergence herbicidal effect; type: in vivo; details: 20 g/ha
Excerpt: as §1, §2, §3, §4

[9] = test system: giant foxtail (SETFA, Setaria faberi); experiment: Greenhouse postemergence herbicidal effect; type: in vivo; details: 20 g/ha
Excerpt: as §1, §2, §3, §4

[10] = test system: annual ryegrass (LOLMG=Lolium multiflorum subsp. gaudini); experiment: Greenhouse postemergence herbicidal effect; type: in vivo; details: 20 g/ha
Excerpt: as §1, §2, §3, §4

[11] = test system: large crabgrass (DIGSA, Digitaria sanguinalis); experiment: Greenhouse postemergence herbicidal effect; type: in vivo; details: 20 g/ha
Excerpt: as §1, §2, §3, §4

[12] = test system: barnyard grass (ECHCG, Echinochloa crus-galli); experiment: Greenhouse postemergence herbicidal effect; type: in vivo; details: Penoxsulam 20 g/ha
Excerpt: as §1, §2, §3, §4

[13] = test system: broadleaf signalgrass (BRAPP, Brachiaria platyphylla); experiment: Greenhouse postemergence herbicidal effect; type: in vivo; details: Penoxsulam 20 g/ha
Excerpt: as §1, §2, §3, §4

[14] = test system: small-flower flatsedge (CYPDI, Cyperus difformis); experiment: Greenhouse postemergence herbicidal effect; type: in vivo; details: Penoxsulam 20 g/ha
Excerpt: as §1, §2, §3, §4

[15] = test system: kochia (KCHSC, Kochia scoparia); experiment: Greenhouse postemergence herbicidal effect; type: in vivo
Outline: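 Plants at the second or third true leaf stage received overhead spray at 187 L/ha, with the pyridine carboxylate (plus cloquintocet-mexyl safener) alone or with ALS herbicides in 1.25% v/v crop oil. Rates are in g ae/ha or g ai/ha. Visual injury versus solvent-blank controls was scored 0–100% after 20-22 d in the greenhouse.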

[16] = test system: common lambsquarters (CHEAL, Chenopodium album L.); experiment: Greenhouse postemergence herbicidal effect; type: in vivo; details: Pyroxsulam 15 g/ha
winter wheat (TRZAW) = experiment: Greenhouse postemergence crop phytotoxicity; type: in vivo, Triticum aestivum; details: Pyroxsulam 10 g/ha
Excerpt: as §1
as §2, with “combinations. […]” for “combinations.”
as §4

winter barley (HORVW) = experiment: Greenhouse postemergence crop phytotoxicity; type: in vivo, Hordeum vulgare; details: Pyroxsulam 10 g/ha
Excerpt: as §1
as §2, with “combinations. […]” for “combinations.”
as §4

spring barley (HORVS) = type: in vivo, Hordeum vulgare
Outline: as §6

[17] = test system: winter rape (BRSNW, Brassica napus); experiment: Greenhouse postemergence herbicidal effect; type: in vivo
Outline: as §6

[18] = test system: ivyleaf speedwell (VERHE, Veronica hederifolia); experiment: Greenhouse postemergence herbicidal effect; type: in vivo; details: Pyroxsulam 10 g/ha
Outline: as §6

[19] = test system: wild buckwheat (POLCO, Polygonum convolvulus); experiment: Greenhouse postemergence herbicidal effect; type: in vivo
Outline: as §6

[20] = test system: wild chamomile (MATCH, Matricaria chamomilla); experiment: Greenhouse postemergence herbicidal effect; type: in vivo
Outline: as §6

[21] = test system: cleavers (GALAP, Galium aparine); experiment: Greenhouse postemergence herbicidal effect; type: in vivo; details: Pyroxsulam 10 g/ha
Outline: as §6

[22] = test system: chickweed (STEME, Stellaria media); experiment: Greenhouse postemergence herbicidal effect; type: in vivo; details: Pyroxsulam 10 g/ha
Outline: as §6

[23] = test system: field chamomile (ANTAR, Anthemis arvensis); experiment: Greenhouse postemergence herbicidal effect; type: in vivo; details: Pyroxsulam 10 g/ha
Outline: as §6

[24] = test system: Russian thistle (SASKR, Salsola kali); experiment: Greenhouse postemergence herbicidal effect; type: in vivo; details: Pyroxsulam 10 g/ha
Outline: as §6

[25] = test system: R-PAPRH = Papaver rhoeas (corn poppy), herbicide-resistant; experiment: Greenhouse postemergence herbicidal effect; type: in vivo; details: Pyroxsulam 10 g/ha
Outline: as §6

[26] = test system: pineapple weed (MATMT, Matricaria discoidea); experiment: Greenhouse postemergence herbicidal effect; type: in vivo; details: Pyroxsulam 10 g/ha
Outline: as §6

[27] = test system: shepherd's purse (CAPBP, Capsella bursa-pastoris); experiment: Greenhouse postemergence herbicidal effect; type: in vivo; details: Pyroxsulam 10 g/ha
Outline: as §6

[28] = test system: wild mustard (SINAR, Sinapis arvensis); experiment: Greenhouse postemergence herbicidal effect; type: in vivo
Outline: as §6

[29] = test system: cornflower (CENCY, Cyanus segetum); experiment: Greenhouse postemergence herbicidal effect; type: in vivo; details: Pyroxsulam 10 g/ha
Outline: as §6

[30] = test system: wild pansy (VIOTR, Viola tricolor); experiment: Greenhouse postemergence herbicidal effect; type: in vivo; details: Pyroxsulam 10 g/ha
Outline: as §5

[31] = test system: corn poppy (PAPRH, Papaver rhoeas); experiment: Greenhouse postemergence herbicidal effect; type: in vivo; details: Pyroxsulam 10 g/ha
Outline: as §6

[32] = test system: bird's-eye speedwell (VERPE, Veronica persica); experiment: Greenhouse postemergence herbicidal effect; type: in vivo; details: Pyroxsulam 10 g/ha
Outline: as §6

[33] = test system: purple deadnettle (LAMPU, Lamium purpureum); experiment: Greenhouse postemergence herbicidal effect; type: in vivo; details: Pyroxsulam 10 g/ha
Outline: as §6

[34] = test system: false chamomile (MATIN, Matricaria inodora); experiment: Greenhouse postemergence herbicidal effect; type: in vivo; details: Pyroxsulam 10 g/ha
Outline: as §6

[35] = test system: pigweed (AMARE, Amaranthus retroflexus); experiment: Greenhouse postemergence herbicidal effect; type: in vivo; details: Pyroxsulam 15 g/ha
Outline: as §6

[36] = test system: field violet (VIOAR, Viola arvensis); experiment: Greenhouse postemergence herbicidal effect; type: in vivo; details: Pyroxsulam 10 g/ha
Outline: as §6

Compound: COc1cc(OC)nc(Oc2cccc(Oc3nc(OC)cc(OC)n3)c2C(=O)O)n1 [Bispyribac, bispyribac]
- % visual injury ([1]; Bispyribac 90 g/ha): 73%
- % visual injury ([2]; Bispyribac 90 g/ha): 70%
- % visual injury ([3]; Bispyribac 90 g/ha): 95%
- % visual injury ([4]; Bispyribac 90 g/ha): 97%
- % visual injury ([5]; Bispyribac 90 g/ha): 20%
- % visual injury ([6]; Bispyribac 90 g/ha): 88%
- % visual injury ([7]; Bispyribac 90 g/ha): 90%
- % visual injury (spring wheat (TRZAS); Bispyribac 90 g/ha): 18%

Compound: COc1cc(OC)nc(NC(=O)NS(=O)(=O)c2ncccc2C(=O)N(C)C)n1 [Nicosulfuron, nicosulfuron]
- % visual injury, Obs [8]: 96%
- % visual injury, Obs [9]: 100%
- % visual injury, Obs [10]: 96%
- % visual injury, Obs [11]: 65%
- % visual injury, Obs ([5]; 20 g/ha): 40%

Compound: COc1cnc(OC)n2nc(NS(=O)(=O)c3c(OCC(F)F)cccc3C(F)(F)F)nc12 [Penoxsulam, penoxsulam]
- % visual injury Obs [12]: 60%
- % visual injury Obs [13]: 32%
- % visual injury Obs [14]: 17%

Compound: COc1cc(OC)nc(Oc2cccc(Oc3nc(OC)cc(OC)n3)c2C(=O)ON=C(c2ccccc2)c2ccccc2)n1 [Pyribenzoxim, pyribenzoxim]
- % visual injury ([1]; Pyribenzoxim 10 g/ha): 73%
- % visual injury ([2]; Pyribenzoxim 10 g/ha): 78%
- % visual injury ([3]; Pyribenzoxim 10 g/ha): 100%
- % visual injury ([4]; Pyribenzoxim 10 g/ha): 98%
- % visual injury ([5]; Pyribenzoxim 10 g/ha): 0%
- % visual injury ([6]; Pyribenzoxim 10 g/ha): 90%
- % visual injury ([7]; Pyribenzoxim 10 g/ha): 90%
- % visual injury (spring wheat (TRZAS); Pyribenzoxim 10 g/ha): 13%

Compound: pyroxsulam
- Obs % visual injury ([15]; KCHSC, Pyroxsulam 15 g/ha): 13%
- % visual injury ([15]; Pyroxsulam 10 g/ha): 30%
- % visual injury Obs ([15]; Pyroxsulam 15 g/ha): 55%
- % visual injury Obs [16]: 73%
- % visual injury (winter wheat (TRZAW)): 0%
- % visual injury (winter barley (HORVW)): 0%
- % visual injury (spring barley (HORVS); Pyroxsulam 10 g/ha): 0%
- % visual injury Obs (spring barley (HORVS); Pyroxsulam 15 g/ha): 0%
- % visual injury ([17]; Pyroxsulam 10 g/ha): 99%
- % visual injury Obs ([17]; Pyroxsulam 15 g/ha): 68%
- % visual injury [18]: 70%
- % visual injury ([19]; Pyroxsulam 10 g/ha): 93%
- % visual injury Obs ([19]; Pyroxsulam 15 g/ha): 94%
- % visual injury ([20]; Pyroxsulam 10 g/ha): 60%
- % visual injury Obs ([20]; Pyroxsulam 15 g/ha): 53%
- % visual injury [21]: 60%
- % visual injury [22]: 100%
- % visual injury [23]: 60%
- % visual injury [24]: 100%
- % visual injury [25]: 10%
- % visual injury [26]: 50%
- % visual injury [27]: 90%
- % visual injury ([28]; Pyroxsulam 10 g/ha): 99%
- % visual injury Obs ([28]; Pyroxsulam 15 g/ha): 73%
- % visual injury [29]: 70%
- % visual injury [30]: 85%
- % visual injury ([7]; Pyroxsulam 10 g/ha): 75%
- % visual injury Obs ([7]; Pyroxsulam 15 g/ha): 48%
- % visual injury [31]: 5%
- % visual injury [32]: 75%
- % visual injury [33]: 50%
- % visual injury [34]: 65%
- % visual injury Obs [35]: 98%
- % visual injury [36]: 80%
- % visual injury (spring wheat (TRZAS); Pyroxsulam 10 g/ha): 0%
- % visual injury Obs (spring wheat (TRZAS); Pyroxsulam 15 g/ha): 0%
- Obs % visual injury (spring wheat (TRZAS); TRZAS, Pyroxsulam 15 g/ha): 0%
